Laboratory results as given in PubChem BioAssay (NCI).
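96-well plates; 48 h exposure; 5 concentrations. Endpoints by linear interpolation between flanking doses. Not reached: highest tested concentration assigned. At the TGI there is no net growth.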

Assays:
Test in all cases: NCI-60 cell line screen, 48 h
[1] = test system: SF-268 CNS
[2] = test system: SF-295 CNS
[3] = test system: CAKI-1 renal
[4] = test system: NCI-H460 lung
[5] = test system: NCI-H522 lung
[6] = test system: EKVX NSCLC
[7] = test system: MDA-MB-231 breast
[8] = test system: IGROV1 ovarian
[9] = test system: MDA-N
[10] = test system: PC-3 prostate
[11] = test system: OVCAR-5 ovarian
[12] = test system: OVCAR-4 ovarian
[13] = test system: COLO 205 colon
[14] = test system: A549 NSCLC
[15] = test system: SK-MEL-2 melanoma
[16] = test system: UACC-62 melanoma
[17] = test system: BT-549 breast

Row | Structure (SMILES) | TGI [1] | TGI [2] | TGI [3] | TGI [4] | TGI [5] | TGI [6] | TGI [7] | TGI [8] | TGI [9] | TGI [10] | TGI [11] | TGI [12] | TGI [13] | TGI [14] | TGI [15] | TGI [16] | TGI [17]
1 | CN(C)c1cccc2c(S(=O)(=O)NCCCNCCN)cccc12 | > 100 µM | > 100 µM | > 100 µM | > 100 µM | > 100 µM | > 100 µM | > 100 µM | > 100 µM | 69.6 µM | > 100 µM | > 100 µM | > 100 µM | 32.8 µM | > 100 µM | 86.7 µM | > 100 µM | 
2 | CCOC(=O)/C(=C/c1ccccc1)N(CC)CC | > 100 µM | > 100 µM | > 100 µM | > 100 µM | > 100 µM | > 100 µM |  | > 100 µM |  |  | > 100 µM | > 100 µM | > 100 µM | > 100 µM | > 100 µM | > 100 µM | 
3 | CC1(C)OC2C(O1)[C@H]1OC(C(Cl)(Cl)Cl)=N[C@H]1C(I)[C@H]2N1C(=O)c2ccccc2C1=O (stereo partly specified) | > 100 µM | > 100 µM |  | > 100 µM | 74.5 µM | > 100 µM |  | 61.7 µM |  |  | > 100 µM | 55.5 µM | > 100 µM | 97.5 µM |  | > 100 µM | 
4 | O=C(c1nc2ccc(Cl)cc2[nH]c1=O)C(O)c1ccco1 (stereo unspecified) | > 100 µM | > 100 µM | > 100 µM | > 100 µM | 32.2 µM | > 100 µM |  | > 100 µM |  |  | > 100 µM | > 100 µM | > 100 µM | > 100 µM | > 100 µM | > 100 µM | 
5 | O=C1CCCc2cc3c(cc21)CC1(C3)Cc2cc3c(cc2C1)C(=O)CCC3 | > 100 µM | > 56 µM | > 88 µM | > 44.2 µM | 6.15 µM | > 100 µM | 21.6 µM | 84.6 µM |  | > 100 µM | > 62.5 µM | 82.7 µM | 5.06 µM | 53.8 µM | 15.6 µM | 30.9 µM | 90.2 µM
6 | OCCCN=C1N=C(Cl)/C(=C\c2ccccc2)N1 | > 100 µM | > 100 µM | > 100 µM |  | > 100 µM | > 100 µM | > 100 µM | > 100 µM | > 100 µM |  | > 100 µM | > 100 µM | > 100 µM | > 100 µM |  |  | 
7 | COC(=O)[C@H]1C2CC[C@@H]3C45C[C@@H](c6ccoc6)O[C@@H]4O[C@@H](O2)C31CCC5C (stereo partly specified) | > 100 µM | > 100 µM | > 100 µM | > 100 µM | > 100 µM | > 100 µM |  | > 100 µM |  |  | > 100 µM | > 100 µM | > 100 µM | > 100 µM | > 100 µM | > 100 µM | 
8 | COc1ccc(/C=C2/C(=O)N(/C=C3\C(=O)Oc4ccccc4C3=O)C(=NC(C)=O)N2C)cc1OC | > 100 µM | > 100 µM | > 100 µM | > 100 µM | > 100 µM | > 100 µM | > 100 µM | > 100 µM | > 100 µM | > 100 µM | > 100 µM | > 100 µM | > 100 µM | > 100 µM | > 100 µM | > 100 µM | 
9 | CCOc1cc2cnc3c4cc(OC)c(OC)cc4ccc3c2cc1OC | > 100 µM | > 100 µM | > 100 µM | > 100 µM | > 100 µM | > 100 µM |  | > 100 µM |  |  | > 100 µM | > 100 µM | > 100 µM | > 100 µM | > 100 µM | > 100 µM | 
10 | O=[N+]([O-])c1ccc2nc(/C=C(\O)c3ccccc3)c(NC34CC5CC(CC(C5)C3)C4)nc2c1 | > 10 µM | > 10 µM | > 10 µM | > 10 µM | > 10 µM | > 10 µM | > 10 µM | > 10 µM | > 10 µM | > 10 µM | > 10 µM | > 10 µM | > 10 µM |  | > 10 µM |  | 
11 | c1cc2nnc1SCCSCCCSCCS2 | > 100 µM | > 100 µM | > 100 µM | > 100 µM | > 100 µM | > 100 µM | > 100 µM | > 100 µM | > 100 µM | > 100 µM | > 100 µM | > 100 µM | > 100 µM | > 100 µM | > 100 µM | > 100 µM | 
12 | CC(C)C1COC(C(C)(C)C2=N[C@@H](C(C)C)CO2)=N1 (stereo partly specified) | > 100 µM | > 100 µM |  | > 100 µM | > 100 µM | > 100 µM |  | > 100 µM |  |  | > 100 µM | > 100 µM | > 100 µM | > 100 µM | > 100 µM | > 100 µM | 
13 | COc1cc(CO)cc2c1[nH]c1ccccc12 | > 25 µM |  |  | > 25 µM | > 25 µM |  |  | > 25 µM |  |  | > 25 µM | > 25 µM | > 25 µM | > 25 µM | > 25 µM | > 25 µM | 
14 | NC(=S)N/N=C(/CCN1CCCC1)CC(C1=C(O)C2=CCCCC2OC1=O)c1ccccc1 (stereo unspecified) | > 100 µM | > 100 µM | > 100 µM | > 100 µM | > 100 µM | > 100 µM |  | > 100 µM |  |  | > 100 µM | > 100 µM | > 100 µM | > 100 µM | > 100 µM | > 100 µM | 
15 | CN1CCN(c2ccc3nc(-c4ccc5nc(CCCc6ccc(N(CCCl)CCCl)cc6)[nH]c5c4)[nH]c3c2)CC1 | > 100 µM | > 100 µM | > 100 µM | > 100 µM | > 100 µM |  | > 100 µM | > 100 µM | > 100 µM | > 100 µM | > 100 µM | > 100 µM | > 100 µM | > 100 µM | > 100 µM | > 100 µM | 
16 | O=C(c1nc2ccc(Cl)cc2[nH]c1=O)C(O)c1cccc([N+](=O)[O-])c1 (stereo unspecified) | 81.5 µM | > 100 µM | > 100 µM | > 100 µM | > 100 µM | > 100 µM |  | > 100 µM |  |  | > 100 µM | > 100 µM | > 100 µM | > 100 µM | > 100 µM | > 100 µM | 
